Measurements: patent US6380231B1 (priority 1995, dated 2002)

- melting point: 120 °C
Compound: CO/C=C(/C(=O)OC)c1ccccc1COc1ncn(-c2ccccc2Cl)n1 [Compound 12, Methyl α-(2-(N′-(o-chlorophenyl)-triazolyl-3′-oxymethyl)-phenyl)-β-methoxyacrylate]
